From patent US20250092065A1, “2-(INDAZOL-5-YL)-6-(PIPERIDIN-4-YL)-1,7-NAPHTHYRIDINE DERIVATIVES AND RELATED COMPOUNDS AS MODULATORS FOR SPLICING NUCLEIC ACIDS AND FOR THE TREATMENT OF PROLIFERATIVE DISEASES” (REMIX THERAPEUTICS INC., priority 2022, published 2025)
Structures can show the parent of a compound that is named as a salt. Where two headings read alike, the source gives them in different places.

Tests used:
Type in all cases: cell-based, human
MYB mRNA = test: RT-qPCR splicing assay, MYB mRNA canonical (CJ) and alternative (AJ) junction; details: Homo sapiens; for AC50: MYB alternative junction mRNA, read-out: MYB AJ (increase in AJ mRNA, AC50)
Summary of the method: (§1)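 Junction-specific RT-qPCR read-out: CJ and AJ isoform levels, housekeeper-normalized (GAPDH/GUSB/PPIA), ΔΔCt vs DMSO, converted to RQ then % response. Cells: A673 (DMEM/10% FBS, adhered 24 h) or K562 (IMDM/10% FBS). Compound 11-pt 3-fold, top 10 uM, 24 h, 37 °C.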

SMN2 mRNA = test: RT-qPCR splicing assay, SMN2 mRNA; details: Homo sapiens, canonical junction qPCR panel, Table 4; read-out: SMN2 IC50 (decrease in CJ mRNA levels)
Summary of the method: as §1

HTT mRNA = test: RT-qPCR splicing assay, HTT mRNA canonical (CJ) and alternative (AJ) junction; details: Homo sapiens; for AC50: HTT alternative junction mRNA, read-out: HTT AJ (increase in AJ mRNA, AC50)
Summary of the method: as §1

MYB = test: HiBiT protein abundance assay, MYB (K562 HiBiT knock-in); details: HiBiT knock-in K562 cells, 24 hours, top dose 10 μM
Summary of the method: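 Steps: seed HiBiT knock-in K562 cells; add compound in 10-point 3-fold series from 10 μM final; incubate 24 h, 37 °C; add lytic HiBiT reagent, shake 5 min, wait 10 min; read luminescence. Normalize to parental K562 and DMSO controls, fit 4PL, take IC50.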

[1] = MYB canonical junction mRNA, RT-qPCR, read-out: MYB CJ (decrease in CJ mRNA levels, IC50)
[2] = canonical junction qPCR panel, Table 4, read-out: MYB IC50 (decrease in CJ mRNA levels)
[3] = HTT canonical junction mRNA, RT-qPCR, read-out: HTT CJ (decrease in CJ mRNA levels, IC50)
[4] = canonical junction qPCR panel, Table 4, read-out: HTT IC50 (decrease in CJ mRNA levels)

## CC(=O)c1nc(-c2cc3cn(C)nc3c(F)c2O)nc2ccc(N3C[C@@H](C)N[C@@H](C)C3)cc12 [Compound 717, 1-{6-[(3R,5S)-3,5-dimethylpiperazin-1-yl]-2-(7-fluoro-6-hydroxy-2-methylindazol-5-yl)quinazolin-4-yl}ethanone]
MYB mRNA; RT-qPCR
  AC50: < 100 nM
MYB mRNA; [1]
  IC50: < 100 nM
MYB mRNA; [2]
  IC50: < 100 nM
SMN2 mRNA
  IC50: < 100 nM
HTT mRNA; RT-qPCR
  AC50: 100 to 1000 nM
HTT mRNA; [3]
  IC50: 100 to 1000 nM
HTT mRNA; [4]
  IC50: 100 to 1000 nM
MYB
  IC50: < 100 nM

## CNC(=O)c1nc(-c2cc3cn(C)nc3c(F)c2O)nc2ccc(N3CCC(N4CCC4)CC3)cc12 [Compound 722, 6-[4-(azetidin-1-yl)piperidin-1-yl]-2-(7-fluoro-6-hydroxy-2-methylindazol-5-yl)-N-methylquinazoline-4-carboxamide]
MYB mRNA; RT-qPCR
  AC50: < 100 nM
MYB mRNA; [1]
  IC50: < 100 nM
MYB mRNA; [2]
  IC50: < 100 nM
SMN2 mRNA
  IC50: < 100 nM
HTT mRNA; RT-qPCR
  AC50: 100 to 1000 nM
HTT mRNA; [3]
  IC50: < 100 nM
HTT mRNA; [4]
  IC50: < 100 nM
MYB
  IC50: < 100 nM

## Cc1cc(N2C[C@@H](C)N[C@@H](C)C2)cc2c(Cl)cc(-c3cc4cn(C)nc4c(F)c3O)nc12 [Compound 723, 5-{4-chloro-6-[(3R,5S)-3,5-dimethylpiperazin-1-yl]-8-methylquinolin-2-yl}-7-fluoro-2-methylindazol-6-ol]
MYB mRNA; RT-qPCR
  AC50: < 100 nM
MYB mRNA; [1]
  IC50: < 100 nM
MYB mRNA; [2]
  IC50: < 100 nM
SMN2 mRNA
  IC50: < 100 nM
HTT mRNA; RT-qPCR
  AC50: 100 to 1000 nM
HTT mRNA; [3]
  IC50: < 100 nM
HTT mRNA; [4]
  IC50: < 100 nM
MYB
  IC50: < 100 nM

## CNC(=O)c1nc(-c2cc3cn(C)nc3c(F)c2O)nc2ccc(N3CCNC4(CC4)C3)cc12 [Compound 728, 6-{4,7-diazaspiro[2.5]octan-7-yl}-2-(7-fluoro-6-hydroxy-2-methylindazol-5-yl)-N-methylquinazoline-4-carboxamide]
MYB mRNA; RT-qPCR
  AC50: < 100 nM
MYB mRNA; [1]
  IC50: < 100 nM
MYB mRNA; [2]
  IC50: < 100 nM
SMN2 mRNA
  IC50: < 100 nM
HTT mRNA; RT-qPCR
  AC50: 100 to 1000 nM
HTT mRNA; [3]
  IC50: 100 to 1000 nM
HTT mRNA; [4]
  IC50: 100 to 1000 nM
MYB
  IC50: < 100 nM

## CNC(=O)c1nc(-c2cc3cn(C)nc3c(F)c2O)nc2ccc(N3CC[C@@H](NC)C3)cc12 [Compound 729, 2-(7-fluoro-6-hydroxy-2-methylindazol-5-yl)-N-methyl-6-[(3R)-3-(methylamino)pyrrolidin-1-yl]quinazoline-4-carboxamide]
MYB mRNA; RT-qPCR
  AC50: < 100 nM
MYB mRNA; [1]
  IC50: < 100 nM
MYB mRNA; [2]
  IC50: < 100 nM
SMN2 mRNA
  IC50: < 100 nM
HTT mRNA; RT-qPCR
  AC50: < 100 nM
HTT mRNA; [3]
  IC50: < 100 nM
HTT mRNA; [4]
  IC50: < 100 nM
MYB
  IC50: < 100 nM

## C[C@@H]1CN(c2ccc3nc(-c4cc5cn(C)nc5c(F)c4O)nc(-c4nccs4)c3c2)C[C@H](C)N1 [Compound 732, 5-{6-[(3R,5S)-3,5-dimethylpiperazin-1-yl]-4-(1,3-thiazol-2-yl)quinazolin-2-yl}-7-fluoro-2-methylindazol-6-ol]
MYB mRNA; RT-qPCR
  AC50: > 10000 nM
MYB mRNA; [1]
  IC50: 1000 to 10000 nM
MYB mRNA; [2]
  IC50: 1000 to 10000 nM
SMN2 mRNA
  IC50: 100 to 1000 nM
HTT mRNA; RT-qPCR
  AC50: > 10000 nM
HTT mRNA; [3]
  IC50: > 10000 nM
HTT mRNA; [4]
  IC50: > 10000 nM
MYB
  IC50: 1000 to 10000 nM

## C[C@@H]1CN(c2ccc3nc(-c4cc5cn(C)nc5c(F)c4O)nc(C(=O)NCCO)c3c2)C[C@H](C)N1 [Compound 737, 6-[(3R,5S)-3,5-dimethylpiperazin-1-yl]-2-(7-fluoro-6-hydroxy-2-methylindazol-5-yl)-N-(2-hydroxyethyl)quinazoline-4-carboxamide]
MYB mRNA; RT-qPCR
  AC50: 100 to 1000 nM
MYB mRNA; [1]
  IC50: 100 to 1000 nM
MYB mRNA; [2]
  IC50: 100 to 1000 nM
SMN2 mRNA
  IC50: < 100 nM
HTT mRNA; RT-qPCR
  AC50: 1000 to 10000 nM
HTT mRNA; [3]
  IC50: 1000 to 10000 nM
HTT mRNA; [4]
  IC50: 1000 to 10000 nM
MYB
  IC50: 100 to 1000 nM

## CNC(=O)c1nc(-c2cc3cn(C)nc3cc2O)nc2ccc(N3CCC(N(C)C)CC3)cc12 [Compound 742, 6-[4-(dimethylamino)piperidin-1-yl]-2-(6-hydroxy-2-methylindazol-5-yl)-N-methylquinazoline-4-carboxamide]
MYB mRNA; RT-qPCR
  AC50: 100 to 1000 nM
MYB mRNA; [1]
  IC50: 100 to 1000 nM
MYB mRNA; [2]
  IC50: 100 to 1000 nM
SMN2 mRNA
  IC50: < 100 nM
HTT mRNA; RT-qPCR
  AC50: > 10000 nM
HTT mRNA; [3]
  IC50: 100 to 1000 nM
HTT mRNA; [4]
  IC50: 100 to 1000 nM
MYB
  IC50: 100 to 1000 nM

## C[C@@H]1CN(c2ccc3nc(-c4cc5cn(C)nc5c(F)c4O)ncc3c2)C[C@H](C)N1 [Compound 743, 5-{6-[(3R,5S)-3,5-dimethylpiperazin-1-yl]quinazolin-2-yl}-7-fluoro-2-methylindazol-6-ol]
MYB mRNA; RT-qPCR
  AC50: > 10000 nM
MYB mRNA; [1]
  IC50: 1000 to 10000 nM
MYB mRNA; [2]
  IC50: 1000 to 10000 nM
SMN2 mRNA
  IC50: 1000 to 10000 nM
HTT mRNA; RT-qPCR
  AC50: 1000 to 10000 nM
HTT mRNA; [3]
  IC50: > 10000 nM
HTT mRNA; [4]
  IC50: > 10000 nM
MYB
  IC50: 1000 to 10000 nM

## C[C@H]1CN(c2ccc3nc(-c4cc5cn(C)nc5c(F)c4O)ncc3c2)C[C@H](C)N1 [Compound 744, 5-{6-[(3S,5S)-3,5-dimethylpiperazin-1-yl]quinazolin-2-yl}-7-fluoro-2-methylindazol-6-ol]
MYB mRNA; RT-qPCR
  AC50: < 100 nM
MYB mRNA; [1]
  IC50: < 100 nM
MYB mRNA; [2]
  IC50: < 100 nM
SMN2 mRNA
  IC50: < 100 nM
HTT mRNA; RT-qPCR
  AC50: < 100 nM
HTT mRNA; [3]
  IC50: < 100 nM
HTT mRNA; [4]
  IC50: < 100 nM
MYB
  IC50: < 100 nM

## C[C@@H]1CN(c2ccc3nc(-c4cc5cn(C)nc5c(F)c4O)ncc3c2)C[C@@H](C)N1 [Compound 745, 5-{6-[(3R,5R)-3,5-dimethylpiperazin-1-yl]quinazolin-2-yl}-7-fluoro-2-methylindazol-6-ol]
MYB mRNA; RT-qPCR
  AC50: < 100 nM
MYB mRNA; [1]
  IC50: < 100 nM
MYB mRNA; [2]
  IC50: < 100 nM
SMN2 mRNA
  IC50: < 100 nM
HTT mRNA; RT-qPCR
  AC50: 100 to 1000 nM
HTT mRNA; [3]
  IC50: 100 to 1000 nM
HTT mRNA; [4]
  IC50: 100 to 1000 nM
MYB
  IC50: < 100 nM

## CN[C@@H]1CCN(c2cc3c(Cl)cc(-c4cc5cn(C)nc5c(C)c4O)nc3cc2C)C1 [Compound 748, 5-{4-chloro-7-methyl-6-[(3R)-3-(methylamino)pyrrolidin-1-yl]quinolin-2-yl}-2,7-dimethylindazol-6-ol]
MYB mRNA; RT-qPCR
  AC50: 1000 to 10000 nM
MYB mRNA; [1]
  IC50: 100 to 1000 nM
MYB mRNA; [2]
  IC50: 100 to 1000 nM
SMN2 mRNA
  IC50: 100 to 1000 nM
HTT mRNA; RT-qPCR
  AC50: > 10000 nM
HTT mRNA; [3]
  IC50: > 10000 nM
HTT mRNA; [4]
  IC50: > 10000 nM
MYB
  IC50: 100 to 1000 nM

## CN[C@H]1CCN(c2cc3c(Cl)cc(-c4cc5cn(C)nc5c(C)c4O)nc3cc2C)C1 [Compound 749, 5-{4-chloro-7-methyl-6-[(3S)-3-(methylamino)pyrrolidin-1-yl]quinolin-2-yl}-2,7-dimethylindazol-6-ol]
MYB mRNA; RT-qPCR
  AC50: 100 to 1000 nM
MYB mRNA; [1]
  IC50: 100 to 1000 nM
MYB mRNA; [2]
  IC50: 100 to 1000 nM
SMN2 mRNA
  IC50: < 100 nM
HTT mRNA; RT-qPCR
  AC50: > 10000 nM
HTT mRNA; [3]
  IC50: > 10000 nM
HTT mRNA; [4]
  IC50: > 10000 nM
MYB
  IC50: 100 to 1000 nM

## Cn1cc2cc(-c3ncc4cc(N5CCC(N6CCC6)CC5)ccc4n3)c(O)c(F)c2n1 [Compound 750, 5-{6-[4-(azetidin-1-yl)piperidin-1-yl]quinazolin-2-yl}-7-fluoro-2-methylindazol-6-ol]
MYB mRNA; RT-qPCR
  AC50: 100 to 1000 nM
MYB mRNA; [1]
  IC50: < 100 nM
MYB mRNA; [2]
  IC50: < 100 nM
SMN2 mRNA
  IC50: < 100 nM
HTT mRNA; RT-qPCR
  AC50: 100 to 1000 nM
HTT mRNA; [3]
  IC50: 100 to 1000 nM
HTT mRNA; [4]
  IC50: 100 to 1000 nM
MYB
  IC50: 100 to 1000 nM

## C[C@@H]1CN(c2ccc3nc(-c4cc5cn(C)nc5cc4O)ncc3c2)C[C@H](C)N1 [Compound 751, 5-{6-[(3R,5S)-3,5-dimethylpiperazin-1-yl]quinazolin-2-yl}-2-methylindazol-6-ol hydrochloride]
MYB mRNA; RT-qPCR
  AC50: 100 to 1000 nM
MYB mRNA; [1]
  IC50: 100 to 1000 nM
MYB mRNA; [2]
  IC50: 100 to 1000 nM
SMN2 mRNA
  IC50: < 100 nM
HTT mRNA; RT-qPCR
  AC50: > 10000 nM
HTT mRNA; [3]
  IC50: > 10000 nM
HTT mRNA; [4]
  IC50: > 10000 nM
MYB
  IC50: 100 to 1000 nM
